Results reported in US8952177B2 (Janssen Pharmaceutica NV, priority 2013, dated 2015).
Counter-ions that a name gives are not always drawn.

Assays:
human FLAP = human FLAP (Homo sapiens (Human), UniProt P20292); assay: FLAP binding assay (HTRF format); conditions: human FLAP-containing Sf-9 membranes, 25 nM HTRF ligand, 2 h; average of runs; read-out: FLAP Binding wild type HTRF Ki
Description: The ability of the compounds of the present invention to treat a FLAP-mediated disease and/or disorder, or associated symptoms or complications thereof, was determined using the following procedures. Binding assay data represent the average value obtained from two different assay plates, with samples run in duplicate on each plate. Human whole blood assay data represent a single replicate on an assay plate using whole blood from at least one healthy donor.
The assay below is used to test the modulatory activity of compounds against FLAP. Human and mouse FLAP-encoding DNA was amplified by polymerase chain reaction and cloned into pFastBacl (Invitrogen) with a NH2-terminal 6-His tag for expression in Spodoptera frugiperda (Sf-9) cells. FLAP-containing membranes were prepared as was a FITC-labeled FLAP modulator (3-(3-(tert-butylthio)-1-(4-chlorobenzyl)-5-(quinolin-2-ylmethoxy)-1H-indol-2-yl)-2,2-dimethylpropanoic acid). The FLAP binding assay is performed in HTRF format (homogeneous time resolved fluorescence). […] The reaction is allowed to proceed for two hours after which the plate is read on an Envision plate reader in HTRF mode. Data are expressed as a HTRF ratio.
For human FLAP binding assays, data are analyzed with 3DX Explorer software. […] For analysis, data from multiple runs are averaged and each compound may be tested in 2 to 20 runs. Each run comprises two plates and each plate includes duplicates. Data from each plate is averaged and data are imported into 3DX. The data from multiple runs are aggregated as the average of duplicates of the calculated ratios in order to calculate Ki and IC50 values. Numbers in parentheses are the number of runs for the assay.

[1] = tested on: leukotriene pathway in human whole blood (LTB4); assay: Human whole blood assay (LTB4 after calcium ionophore A23187 stimulation); type: cell-based; conditions: Homo sapiens, human whole blood diluted 1:1 in RPMI, 15 min pre-incubation, A23187 7 μg/mL for 30 min at 37° Celsius
In short: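 Heparinised human whole blood, diluted 1:1 in RPMI, was preincubated with compound for 15 min at 37° C. before stimulation with A23187 (7 μg/mL) for 30 min. Plasma LTB4 was measured by immunoassay kit and IC50 obtained by 4-parameter fit; single replicate per plate, blood from at least one donor.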

Sequence of human FLAP (P20292 whole entry): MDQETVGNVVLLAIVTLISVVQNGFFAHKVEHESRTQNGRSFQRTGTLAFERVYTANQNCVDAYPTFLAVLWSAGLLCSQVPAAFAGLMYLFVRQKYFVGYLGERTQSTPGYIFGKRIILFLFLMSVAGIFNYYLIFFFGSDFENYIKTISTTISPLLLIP

For `Cn1ccc(COc2cc(F)c3nc([C@@H]4CCCC[C@@H]4C(=O)O)n(Cc4ccc(OC(F)(F)F)cc4)c3c2)n1` (racemic) [Example 95, racemic cis-2-{4-Fluoro-6-[(1-methyl-1H-pyrazol-3-yl)methoxy]-1-[4-(trifluoromethoxy)benzyl]-1H-benzimidazol-2-yl}cyclohexanecarboxylic acid as the HCl salt], the Ki (human FLAP) was 3.6 nM and the IC50 [1] was 1350 nM.

In the case of `Cc1ccc(COc2ccc3nc([C@H]4CCCC[C@H]4C(=O)O)n(Cc4cccc(-c5ccc(C(F)(F)F)cc5)c4)c3c2)nc1` (racemic) [Example 145, racemic cis-2-(6-[(5-Methylpyridin-2-yl)methoxy]-1-{[4′-(trifluoromethyl)biphenyl-3-yl]methyl}-1H-benzimidazol-2-yl)cyclohexanecarboxylic acid], the Ki (human FLAP) is reported as 7.2 nM and the IC50 [1] is reported as 920 nM.

`Cn1ccc(COc2ccc3nc([C@@H]4CCCC[C@@H]4C(=O)O)n(Cc4ccc(OC(F)(F)F)cc4F)c3c2F)n1` (racemic) [Example 91, racemic cis-2-{7-Fluoro-1-[2-fluoro-4-(trifluoromethoxy)benzyl]-6-[(1-methyl-1H-pyrazol-3-yl)methoxy]-1H-benzimidazol-2-yl}cyclohexanecarboxylic acid] was tested, and the Ki (human FLAP) was 6.6 nM and the IC50 [1] was 170 nM.

`Cn1ccc(COc2ccc3nc([C@@H]4[C@H](C(=O)O)C4(C)C)n(Cc4ccc(OC(F)(F)F)cc4)c3c2)n1` (racemic) [Example 122, racemic cis-2,2-Dimethyl-3-{6-[(1-methyl-1H-pyrazol-3-yl)methoxy]-1-[4-(trifluoromethoxy)benzyl]-1H-benzimidazol-2-yl}cyclopropanecarboxylic acid] showed a Ki (human FLAP) of about 830 nM and an IC50 [1] of 3400 nM.

In the case of `Cc1cnc(COc2ccc3nc([C@@H]4[C@H](C(=O)O)C4(C)C)n(Cc4ccc(Br)cc4)c3c2)c(F)c1` (racemic) [Example 132, racemic cis-3-{1-(4-Bromobenzyl)-6-[(3-fluoro-5-methylpyridin-2-yl)methoxy]-1H-benzimidazol-2-yl}-2,2-dimethylcyclopropanecarboxylic acid], the Ki (human FLAP) is reported as 2.9 nM and the IC50 [1] is reported as 270 nM.

Compound `CCC(CC)(Cc1nc2ccc(OCc3ccc(C)cn3)cc2n1Cc1cccc(Br)c1)C(=O)O` [Example 14, 2-({1-(3-Bromobenzyl)-6-[(5-methylpyridin-2-yl)methoxy]-1H-benzimidazol-2-yl}methyl)-2-ethylbutanoic acid] has a Ki (human FLAP) of 56 nM and an IC50 [1] of over 10000 nM.

With `Cc1ccc(Cn2c(CC(C)(C)C(=O)O)nc3ccc(OCc4ncc(C)cc4F)cc32)c(F)c1` [Example 127, 3-{1-(2-Fluoro-4-methylbenzyl)-6-[(3-fluoro-5-methylpyridin-2-yl)methoxy]-1H-benzimidazol-2-yl}-2,2-dimethylpropanoic acid] the Ki (human FLAP) was 160 nM and the IC50 [1] was 2120 nM.

Work on `Cc1cnc(COc2ccc3nc(CC(C)(C)C(=O)O)n(Cc4ccc(N5CC(C(F)(F)F)C5)cc4F)c3c2)c(F)c1` [Example 183, 3-(6-[(3-Fluoro-5-methylpyridin-2-yl)methoxy]-1-{2-fluoro-4-[3-(trifluoromethyl)azetidin-1-yl]benzyl}-1H-benzimidazol-2-yl)-2,2-dimethylpropanoic acid] yielded a Ki (human FLAP) of 13 nM and an IC50 [1] of 880 nM.

Work on `CCC(CC)(Cc1nc2ccc(OCc3ccc(C)cn3)cc2n1Cc1ccc(OC(F)(F)F)cc1C)C(=O)O` [Example 105] yielded a Ki (human FLAP) of 40 nM and an IC50 [1] of 6250 nM.

`Cc1cnc(COc2ccc3nc(CC(C)(C)C(=O)O)n(Cc4ccc(-c5ccc(C(F)(F)F)cc5)cc4F)c3c2)c(F)c1` [Example 141, 3-(6-[(3-Fluoro-5-methylpyridin-2-yl)methoxy]-1-{[3-fluoro-4′-(trifluoromethyl)biphenyl-4-yl]methyl}-1H-benzimidazol-2-yl)-2,2-dimethylpropanoic acid] showed a Ki (human FLAP) of 5.1 nM and an IC50 [1] of 760 nM.

`Cc1cnc(COc2ccc3nc(CC(C)(C)C(=O)O)n(Cc4ccc(N5CCC(F)CC5)cc4F)c3c2)c(F)c1` [Example 186] showed a Ki (human FLAP) of 30 nM and an IC50 [1] of 710 nM.

Compound `Cc1cnc(COc2ccc3nc(CC(C)(C)C(=O)O)n(Cc4cccc(-c5ccc(C(F)(F)F)cc5)c4)c3c2)c(F)c1` [Example 143, 3-(6-[(3-Fluoro-5-methylpyridin-2-yl)methoxy]-1-{[4′-(trifluoromethyl)biphenyl-3-yl]methyl}-1H-benzimidazol-2-yl)-2,2-dimethylpropanoic acid] has a Ki (human FLAP) of 13 nM and an IC50 [1] of 1820 nM.

`Cc1ccc(COc2cc(Cl)c3nc(CC(C)(C)C(=O)O)n(Cc4ccc(Br)cc4)c3c2)nc1` [Example 79, 3-{1-(4-Bromobenzyl)-4-chloro-6-[(5-methylpyridin-2-yl)methoxy]-1H-benzimidazol-2-yl}-2,2-dimethylpropanoic acid] was tested, and the Ki (human FLAP) was 85 nM and the IC50 [1] was about 20000 nM.

`Cn1cc(Cl)c(COc2ccc3nc([C@@H]4CCCC[C@@H]4C(=O)O)n(Cc4ccc(N5CCC(F)CC5)cc4)c3c2)n1` (racemic) [Example 87, racemic cis-2-{6-[(4-Chloro-1-methyl-1H-pyrazol-3-yl)methoxy]-1-[4-(4-fluoropiperidin-1-yl)benzyl]-1H-benzimidazol-2-yl}cyclohexanecarboxylic acid] was tested, and the Ki (human FLAP) was 15 nM and the IC50 [1] was 1780 nM.

In the case of `CCC(CC)(Cc1nc2ccc(OCc3ccn(C)n3)cc2n1Cc1ccc(N2CCC(C(F)(F)F)CC2)cc1)C(=O)O` [Example 190, 2-ethyl-2-((6-((1-methyl-1H-pyrazol-3-yl)methoxy)-1-(4-(4-(trifluoromethyl)piperidin-1-yl)benzyl)-1H-benzo[d]imidazol-2-yl)methyl)butanoic acid], the Ki (human FLAP) is reported as 210 nM and the IC50 [1] is reported as 930 nM.

Work on `Cc1cnc(COc2ccc3nc(CC(C)(C)C(=O)O)n(Cc4ccc(-c5ccc(C(F)(F)F)cc5)cc4)c3c2)c(F)c1` [Example 142, 3-(6-[(3-Fluoro-5-methylpyridin-2-yl)methoxy]-1-{[4′-(trifluoromethyl)biphenyl-4-yl]methyl}-1H-benzimidazol-2-yl)-2,2-dimethylpropanoic acid] yielded a Ki (human FLAP) of 7.4 nM and an IC50 [1] of 980 nM.

`CCC(CC)(Cc1nc2ccc(OCc3ncc(C)cc3F)cc2n1Cc1ccc(N2CCC(C)CC2)cc1)C(=O)O` [Example 180, 2-Ethyl-2-({6-[(3-fluoro-5-methylpyridin-2-yl)methoxy]-1-[4-(4-methylpiperidin-1-yl)benzyl]-1H-benzimidazol-2-yl}methyl)butanoic acid] showed a Ki (human FLAP) of 3 nM and an IC50 [1] of 560 nM.

`Cc1ccc(COc2ccc3nc(C4CCCC[C@H]4C(=O)O)n(Cc4ccc(C#N)cc4)c3c2)nc1` (mixture of isomers) [Example 37, racemic cis-2-{1-(4-Cyanobenzyl)-6-[(5-methylpyridin-2-yl)methoxy]-1H-benzimidazol-2-yl}cyclohexanecarboxylic acid as the TFA salt] was tested, and the Ki (human FLAP) was 26 nM and the IC50 [1] was 680 nM.

Compound `Cn1ccc(COc2ccc3nc([C@H]4CCCC[C@H]4C(=O)O)n(Cc4ccc(OC(F)(F)F)cc4F)c3c2)n1` (stereo in doubt) [Example 53, (1R*,2S*)-2-(1-(2-Fluoro-4-(trifluoromethoxy)benzyl)-6-((1-methyl-1H-pyrazol-3-yl)methoxy)-1H-benzo[d]imidazol-2-yl)cyclohexanecarboxylic acid] has a Ki (human FLAP) of 3 nM and an IC50 [1] of 270 nM.

With `CCC(CC)(Cc1nc2ccc(OCc3ccc(C)cn3)cc2n1Cc1ccc(OC(F)(F)F)cc1F)C(=O)O` [Example 23, 2-Ethyl-2-({1-[2-fluoro-4-(trifluoromethoxy)benzyl]-6-[(5-methylpyridin-2-yl)methoxy]-1H-benzimidazol-2-yl}methyl)butanoic acid] the Ki (human FLAP) was 18 nM and the IC50 [1] was 910 nM.
